# According to patent US9127040B2, “Regulation of sodium channels by PLUNC proteins” (The University of North Carolina at Chapel Hill, priority 2011, dated 2015):
# Entries after “also recorded” stand apart in the source; their conditions may differ. Ends that are not written are not given here.
# B1: SPLUNC1: human SPLUNC1 (SEQ ID NO:1), 256 amino acid secreted PLUNC family protein; rSPLUNC1 is the purified V5/6His-tagged recombinant form (protein, listed as Homo sapiens)
# chain: MFQTGGLIVFYGLLAQTMAQFGGLPVPLDQTLPLNVNPALPLSPTGLAGSLTNALSNGLLSGGLLGILENLPLLDILKPGGGTSGGLLGGLLGKVTSVIPGLNNIIDIKVTDPQLLELGLVQSPDGHRLYVTIPLGIKLQVNTPLVGASLLRLAVKLDITAEILAVRDKQERIHLVLGDCTHSPGSLQISLLDGLGPLPIQGLLDSLTGILNKVLPELVQGNVCPLVNEVLRGLDITLVHDIVNMLIHGLQFVIKV
# modifications: V5/6His tag in recombinant form
# notes: rSPLUNC1 is the purified V5/6His-tagged recombinant form
# What was measured:
# [1] = target: T1, αβγENaC (Rattus norvegicus, UniProt P37089+P37090+P37091); assay: Amiloride-sensitive whole cell current, two electrode voltage clamp, Xenopus laevis oocytes expressing αβγENaC; type: cell-based
# T1 construct: expressed in transfected cells; host or cells: Xenopus laevis oocytes (cRNA injection)
# T1 sequence (P37089 1-698): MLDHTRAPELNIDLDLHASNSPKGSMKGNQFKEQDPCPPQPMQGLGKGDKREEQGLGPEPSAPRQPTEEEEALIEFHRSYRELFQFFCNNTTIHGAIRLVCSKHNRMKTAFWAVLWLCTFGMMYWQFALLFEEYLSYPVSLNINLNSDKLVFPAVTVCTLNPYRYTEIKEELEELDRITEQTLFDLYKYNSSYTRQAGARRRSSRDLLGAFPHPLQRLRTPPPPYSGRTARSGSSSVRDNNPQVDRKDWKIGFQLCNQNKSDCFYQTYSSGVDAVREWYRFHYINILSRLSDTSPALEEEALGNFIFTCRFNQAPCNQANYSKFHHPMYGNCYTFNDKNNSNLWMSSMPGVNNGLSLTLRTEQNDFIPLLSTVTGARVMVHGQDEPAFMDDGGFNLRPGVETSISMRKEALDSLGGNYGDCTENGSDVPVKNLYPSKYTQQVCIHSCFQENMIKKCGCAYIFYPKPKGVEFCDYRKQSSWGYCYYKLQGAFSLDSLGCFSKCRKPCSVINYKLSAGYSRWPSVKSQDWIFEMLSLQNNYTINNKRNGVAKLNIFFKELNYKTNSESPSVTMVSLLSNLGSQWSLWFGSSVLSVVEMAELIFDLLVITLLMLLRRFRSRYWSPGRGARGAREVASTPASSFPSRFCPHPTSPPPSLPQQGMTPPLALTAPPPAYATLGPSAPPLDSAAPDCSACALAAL
# T1 sequence (P37090 1-638): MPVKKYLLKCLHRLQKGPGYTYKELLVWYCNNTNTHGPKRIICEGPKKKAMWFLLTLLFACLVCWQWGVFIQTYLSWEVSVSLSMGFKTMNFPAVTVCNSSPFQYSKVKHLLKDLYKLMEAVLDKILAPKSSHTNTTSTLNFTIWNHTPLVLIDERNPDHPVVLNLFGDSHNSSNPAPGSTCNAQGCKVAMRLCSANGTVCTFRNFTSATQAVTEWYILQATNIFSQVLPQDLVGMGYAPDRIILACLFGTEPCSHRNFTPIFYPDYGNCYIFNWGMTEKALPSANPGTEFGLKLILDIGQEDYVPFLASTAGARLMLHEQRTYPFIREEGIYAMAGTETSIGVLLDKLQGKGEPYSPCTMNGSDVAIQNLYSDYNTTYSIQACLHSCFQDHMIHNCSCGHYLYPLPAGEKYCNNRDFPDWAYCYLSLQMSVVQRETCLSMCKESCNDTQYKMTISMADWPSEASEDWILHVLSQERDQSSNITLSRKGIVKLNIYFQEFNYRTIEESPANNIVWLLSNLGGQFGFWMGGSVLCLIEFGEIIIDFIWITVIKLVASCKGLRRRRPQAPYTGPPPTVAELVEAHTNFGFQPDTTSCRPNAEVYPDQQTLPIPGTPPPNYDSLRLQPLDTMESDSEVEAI
# T1 sequence (P37091 1-650): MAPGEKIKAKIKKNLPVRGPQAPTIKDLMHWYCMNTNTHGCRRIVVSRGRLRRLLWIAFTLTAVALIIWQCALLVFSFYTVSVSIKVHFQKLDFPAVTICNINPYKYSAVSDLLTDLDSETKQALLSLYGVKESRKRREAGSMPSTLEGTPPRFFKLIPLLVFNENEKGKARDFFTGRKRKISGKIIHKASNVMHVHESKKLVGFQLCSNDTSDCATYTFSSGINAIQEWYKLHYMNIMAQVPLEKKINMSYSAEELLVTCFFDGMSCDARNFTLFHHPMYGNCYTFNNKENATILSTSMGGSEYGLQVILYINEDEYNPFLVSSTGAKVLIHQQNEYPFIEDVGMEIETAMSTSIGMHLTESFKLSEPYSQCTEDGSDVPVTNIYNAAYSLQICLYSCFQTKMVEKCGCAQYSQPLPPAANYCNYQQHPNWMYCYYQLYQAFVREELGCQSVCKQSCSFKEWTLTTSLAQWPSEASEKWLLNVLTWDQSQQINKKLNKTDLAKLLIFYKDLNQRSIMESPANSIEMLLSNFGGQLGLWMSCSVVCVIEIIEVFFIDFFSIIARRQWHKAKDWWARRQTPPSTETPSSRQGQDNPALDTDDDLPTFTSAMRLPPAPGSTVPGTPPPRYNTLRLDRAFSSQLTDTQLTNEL
# Description: Xenopus laevis oocytes were harvested and injected as described (Donaldson, et al., J. Biol. Chem. 277:8338 (2002)). Defolliculated healthy stage V-VI oocytes were injected with 0.3 ng of CRNA of each ENaC subunit. Injected oocytes were kept in modified Barth's saline (in mM: 88 NaCl, 1 KCl, 2.4 NaHCO3, 0.3 Ca(NO3)2, 0.41 CaCl2, 0.82 MgSO4, and 15 HEPES, adjusted to pH 7.35 with Tris). Oocytes were studied 24 hr after injection using the two electrode voltage clamp technique as previously described (Donaldson, et al., J. Biol. Chem. 277:8338 (2002)). Oocytes were clamped at a holding potential of −60 mV. The change in amiloride-sensitive whole cell current as an indicator of ENaC activity was determined by subtracting the corresponding current value measured in the presence of 10 μM amiloride from that measured before the application of amiloride. Where appropriate, oocytes were incubated with G22-A39 or ABC for 1 h prior to recording. In some experiments β-ENaC^S518C was used which forms ENaCs that are locked into an open probability near 1.0 by exposure to the sulthydral reactive reagent [2-(Trimethyl-ammonium)ethyl]methanethiosulphonate bromide (MTSET). MTSET was added at a concentration of 1 mM to the oocyte bath as previously described (Snyder, J. Clin. Invest. 105: 45 (2000)).
# [2] = tested on: CF HBECs
# [3] = target: T1, αβγENaC; assay: Amiloride-sensitive whole cell current, two electrode voltage clamp, Xenopus laevis oocytes expressing αβγENaC; type: cell-based; conditions: 100 μM in bath for 2 h; pH 6 vs 7.4
molecule,measurement,setting,value
GGLPVPLDQTLPLNVNPA [S18],inhibition of ENaC current by peptide in bath,[1]; 10 μM in oocyte bath for 1 h,inhibited ENaC to the same degree as the full length protein; also recorded: inhibits both basal and trypsin-stimulated ENaC current
same,effect of N-terminal biotinylation on ability to inhibit ENaC,[1]; n=6,no effect
same,ASL absorption,"[2]; 10 μM apical, over 24 h",significantly blocked ASL absorption
same,"CF ASL absorption, paired cultures",[2]; 100 μM SPLUNC1 or S18,inhibited CF ASL absorption
same,IC50,[2]; 8 h,600 nM
same,CF ASL hyperabsorption in the presence of activated neutrophil supernatant,"[2]; 8 h ASL height, ANS",prevented CF ASL hyperabsorption
same,CF ASL hyperabsorption in the presence of neutrophil elastase,"[2]; 8 h ASL height, neutrophil elastase",prevented CF ASL hyperabsorption
same,heat stability: inhibition of CF ASL absorption after heating,"[2]; peptide heated to 67° C. for 30 min, also with neutrophil elastase",no effect on the ability of S18 to inhibit CF ASL absorption
same,inhibition of amiloride-sensitive ENaC current at pH 6,[3],still inhibits ENaC
B1,activation of ENaC currents by prostasin (CAP1) and CAP2,[1]; SPLUNC1 co-expressed,significantly reduced
same,trypsin stimulation of ENaC activity,[1]; SPLUNC1 co-expressed,attenuated
same,inhibition of ENaC by C-terminal truncation mutants,"[1]; co-expressed in oocytes, all p<0.0001 where significant",Significant inhibition
same,CF ASL volume homeostasis in SPLUNC1 knockdown CF HBECs,[2]; recombinant SPLUNC1 together with POPSO-Ringer,required to restore CF ASL volume homeostasis
same,inhibition of amiloride-sensitive ENaC current at pH 6,[3],abolished at pH 6
